Experimental findings from US12409140B2, “Therapeutic formulations and uses thereof” (Bionomics Limited, priority 2019, dated 2025) are described below.

The nature of data set [1]: Biorelevant dissolution testing (solubility/precipitation): SGF (0.1N HCl) then transfer to SIF (FaSSIF). It counts as physicochemical. The following applies: for Total Drug CmaxGB: SGF (0.1N HCl, pH=1), 0-30 min, equivalent to 2.0 mg/mL of compound I in 50 mL; for Total Drug AUC 35-210 FaSSIF / Total Drug C210: SIF/FaSSIF; for Total Drug AUC 35-210 FaSSIF: 35-210 min; for Total Drug C210: 210 min; for Total Drug CmaxFaSSIF: after transfer at 30 min into 50 mL SIF (2.24 mg/mL FaSSIF in 100 mM PBS). As to the method: Appropriate amounts (equivalent to 2.0 mg/mL of compound I) of composition of invention were added to 50 mL of 0.1N HCl and stirred. The aliquots of mixture were withdrawn at 10 and 25 minutes, vortexed for 10 seconds and the dissolved amount was measure by analytical HPLC using external reference standards at a wavelength of 240 nm. After 30 minutes, the entire content of sample from SGF incubation was transferred into 50 mL of SIF media with stirring, and the dissolved amount was measured at 35, 50, 75, 120 and 210 minutes.

Data set [2] can be described thus: Solubility of Compound I (preformulation, stated in words). The class given is physicochemical. The following applies: b16: in vitro, crystalline form.
Data set [3] is described as follows: Permeability of Compound I (stated in words). It counts as in vitro ADME.
Data set [4] in a line: Oral exposure of suspension formulations (preformulation studies). Particulars: increased with 0.5% HPMC, depends on fed/fasted state. It counts as in vivo.

Turning to `CCn1cc(C(=O)N2CCOCC2)c(=O)c2cc(NC3Cc4ccccc4C3)cnc21` [100% BNC210 SD], the “Increase in AUC over API AUC” value in data set [1] (AUC 35-210 FaSSIF relative to BNC210 API) was 2. For the same compound, in data set [1], the “Total Drug CmaxGB” value turned out to be 158 μgA/mL, the “Total Drug AUC 35-210 FaSSIF” value is 8700 min * μgA/mL, the “Total Drug C210” value came to 60 μgA/mL and the “Total Drug CmaxFaSSIF” value is given as 68 μgA/mL.

`CCn1cc(C(=O)N2CCOCC2)c(=O)c2cc(NC3Cc4ccccc4C3)cnc21` [BNC210 API]: in data set [1], the “Total Drug CmaxGB” value was determined as 88 μgA/mL, the “Total Drug AUC 35-210 FaSSIF” value was 4300 min * μgA/mL, the “Total Drug C210” value came out at 29 μgA/mL and the “Total Drug CmaxFaSSIF” value is listed as 32 μgA/mL. Further, the Solubility entry in data set [2] (listed as Compound I) is “poorly soluble”. In addition, the Solubility entry in data set [2] (listed as compound I) is on record as “poor in vitro solubility”. Also, the Permeability entry in data set [3] is “moderate permeability”. In data set [4], the Oral exposure result is reported as “low oral exposure”.
